The target of one test is human Plasma Kallikrein (Homo sapiens (Human), UniProt P03952). Put plainly: In vitro enzyme inhibition of human plasma kallikrein (Pro-Phe-Arg-AMC cleavage). It counts as biochemical. The settings on record: PFR-AMC substrate, 37° C., read-out: hPK IC50. As to the method: The ability of the compounds disclosed herein to inhibit human plasma kallikrein activity was quantified according to the procedures below.
A 10 mM solution of the test compound was made in DMSO. This solution was serially diluted 1:5 in DMSO to yield 2000, 400, 80, 16, 3.2, 0.64, 0.128, 0.0256 and 0.00512 μM compound test solutions. A control tube containing only DMSO is included. 16 μL of each compound test solution was combined with 384 μL of assay buffer (50 mM Tris-HCl pH 7.5, 150 mM NaCl, 0.01% Triton X-100) to yield a “4× test compound buffer stock”.
Separately, a 40 nM solution of human Plasma Kallikrein (Abcam) and a 93.6 μM solution Pro-Phe-Arg-AMC (Bachem) were made using assay buffer. These solutions are hereby refereed to as 4×hPK and 2×PFR-AMC, respectively.
60 μL of each 4× test compound buffer stock was combined with 60 μL of 4× hPK to yield 120 μL of “2× test compound buffer stock/2×hPK”. 50 μL was removed from this mixture and placed into duplicate wells on a Microfluor 1 Black U-bottom microtiter plate (Thermo Scientific). This plate was incubated for 5 minutes at 37° C. To each well, 50 μL of pre-warmed 2×PFR-AMC was added to start the enzymatic reaction. Cleavage of PFR-AMC was monitored in a Biotek Synergy H4 reader set at 37° C. Readings are taken every 43 seconds for 1 hour. The highest mean velocity over 20 reads (˜15 minutes) is used to calculate the IC50. The IC50 is calculated using the Gen5 (Biotek Instruments).
The ability of the compounds in Table 1 to inhibit human plasma kallikrein activity was determined and the data is shown in Table 3.

For test [1], the target named is kallikrein in human plasma (Homo sapiens (Human), UniProt P03952). Put plainly: In vitro cellular assay / contact assay: kallikrein activity in ellagic acid-activated human plasma (Z-FR-2-AMC substrate). Format: biochemical. The note with it: human plasma activated with ellagic acid, 37° C. Here is the method: The ability of the compounds disclosed herein to inhibit cellular kallikrein activity was quantified and the respective EC50 value was determined.
Plasma kallikrein inhibitor C1NH (Athens Research & Technology, Cat #16-16-031509); Ellagic acid (Sigma, E2250); Substrate Z—FR-2-AMC (GL Biochem, Cat #55352); Nunc™ 96-Well Polypropylene MicroWell™ Plates (Nunc, Cat #267342)
All dilutions were prepared in an assay buffer comprising 50 mM Tris-HCl pH 7.2, 150 mM NaCl, and 0.01% Triton X-100.
Four fold serial dilutions were prepared from a 107.53 μM plasma kallikrein inhibitor C1NH stock solution, to yield ten solutions with concentrations between 20 μM and […]. Similarly, four fold serial dilutions were prepared from 10 mM stock solutions of various test compounds, to yield ten solutions with concentrations between 4 mM and 0.015 μM. The ten solutions of the test compounds, prepared by serial dilution, were further diluted 50-fold in the assay buffer.
Human plasma is thawed on ice and centrifuged for 15 min at 4° C. to remove platelets. A 1 mM stock solution of ellagic acid is diluted to 8 μM and mixed with human plasma, after removing platelets, at a ratio of 1:0.8. The mixture of human plasma and ellagic acid was further diluted 32-fold in the assay buffer, to yield the final mixture for use in the inhibition assay.
A 22.5 μL volume of the final mixture of human plasma and ellagic acid was added to a 96-well microwell plate and the plate was incubated for 15 min at 37° C.
The test compounds at various concentrations, also prepared by serial dilutions as described above, are added to the test wells. The volume of test compound added to each test well was 12.5 μL, to yield final concentrations of 20 μM, 5 μM, 1.25 μM, 312.5 nM, 78.125 nM, 19.531 nM, 4.883 nM, 1.221 nM, 0.305 nM, and 0.076 nM. Each test compound concentration was tested in duplicates.
In addition to the inhibitor control and test wells, the 96 well assay plate includes positive control wells which contained the mixture of human plasma and ellagic acid without C1NH inhibitor or test compounds, and background wells which contained neither the mixture of human plasma and ellagic acid nor the test compounds. The total volume of liquid in positive control and background wells was brought up to 35 μL, using the assay buffer.
The assay plate containing C1NH inhibitors and test compounds mixed with human plasma and ellagic acid and appropriate controls was incubated at 37° C. for 5 min. A 10 mM stock solution of substrate Z—FR-2-AMC was diluted to 133.2 μM in the assay buffer, and 15 μL of the diluted substrate was added to each well, to yield a final substrate concentration of 40 μM in each well. […]
The enzyme reaction was quantified by immediate kinetic reading of the assay plate using excitation/emission wavelengths of 330 nm/440 nm respectively. Fluorescence intensity was recorded for 60 min, using a time interval of 43 sec.
The inhibition activity of the test compounds were evaluated using the IC50 values, calculated according to the dose-response curve of the test compounds, fitted using the “log(inhibitor)-response(variable slope)” equation in GraphPadPrism software (GraphPad Software, Inc.).
The percentage inhibition was calculated using the following equation:
[formula] where, Mean(BG) is the average value of the fluorescence intensity of the background wells and Mean(PC) is the average value of the fluorescence intensity of the positive control wells. […]

Chain of human Plasma Kallikrein (P03952 391-638 limits assumed): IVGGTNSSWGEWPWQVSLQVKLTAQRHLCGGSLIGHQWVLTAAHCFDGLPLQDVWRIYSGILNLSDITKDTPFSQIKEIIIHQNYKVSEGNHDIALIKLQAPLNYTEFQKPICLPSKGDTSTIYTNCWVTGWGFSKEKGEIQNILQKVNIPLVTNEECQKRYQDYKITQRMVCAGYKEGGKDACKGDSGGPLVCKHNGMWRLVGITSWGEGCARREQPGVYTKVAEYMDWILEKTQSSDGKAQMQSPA
Chain of human Plasma Kallikrein (P03952 20-390 partner limits assumed): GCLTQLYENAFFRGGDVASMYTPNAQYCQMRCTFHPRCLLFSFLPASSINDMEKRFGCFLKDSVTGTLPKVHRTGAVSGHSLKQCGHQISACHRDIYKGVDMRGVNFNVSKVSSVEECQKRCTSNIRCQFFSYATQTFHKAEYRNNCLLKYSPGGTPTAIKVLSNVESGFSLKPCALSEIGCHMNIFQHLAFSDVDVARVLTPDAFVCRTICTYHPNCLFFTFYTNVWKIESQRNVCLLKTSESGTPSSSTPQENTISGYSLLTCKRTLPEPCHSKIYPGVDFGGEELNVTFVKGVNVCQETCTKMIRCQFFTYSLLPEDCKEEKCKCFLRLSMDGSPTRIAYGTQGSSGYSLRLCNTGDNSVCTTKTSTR
Chain of kallikrein in human plasma (P03952 391-638 limits assumed): as the sequence (P03952 391-638 limits assumed) above
Chain of kallikrein in human plasma (P03952 20-390 partner limits assumed): as the sequence (P03952 20-390 partner limits assumed) above

Take `Cc1cc(N)nc(C)c1CNC(=O)c1cncc(Cc2ccc3ncc(Cl)cc3c2)n1` [Example 25, N-((6-amino-2,4-dimethylpyridin-3-yl)methyl)-6-((3-chloroquinolin-6-yl)methyl)pyrazine-2-carboxamide]: at human Plasma Kallikrein, the IC50 is not above 100 nM. Moreover, in test [1], the concentration giving a half-maximal response (EC50) is not above 100 nM.

On to `COc1ccc(CNC(=O)c2cncc(Cc3ccc(Cn4ccccc4=O)cc3)c2)cc1` [Example 16, N-(4-methoxybenzyl)-5-(4-((2-oxopyridin-1(2H)-yl)methyl)benzyl)nicotinamide], for which the IC50 at human Plasma Kallikrein lay in the range of 1000 to 10000 nM.

As for `CS(=O)(=O)c1cc(Cc2cc(C(=O)NCc3cnc(N)cc3C(F)(F)F)ccn2)ccc1Cn1ccccc1=O` [Example 27, N-((6-amino-4-(trifluoromethyl)pyridin-3-yl)methyl)-2-(3-(methylsulfonyl)-4-((2-oxopyridin-1(2H)-yl)methyl)benzyl)isonicotinamide], the IC50 at human Plasma Kallikrein fell in the range of 100 to 1000 nM.

In the case of `CC(=O)N(Cc1ccn(Cc2cc(C(=O)NCc3cc4c(Cl)c[nH]c4cc3F)ccn2)n1)C1CC1` [Example 9, N-((3-chloro-6-fluoro-1H-indol-5-yl)methyl)-2-((3-((N-cyclopropylacetamido)methyl)-1H-pyrazol-1-yl)methyl)isonicotinamide], the IC50 on human Plasma Kallikrein was more than 10000 nM.

As for `N#Cc1cnn(Cc2cncc(C(=O)NCc3cc4c(Cl)c[nH]c4cc3F)c2)c1` [Example 7, N-((3-chloro-6-fluoro-1H-indol-5-yl)methyl)-5-((4-cyano-1H-pyrazol-1-yl)methyl)nicotinamide], the IC50 at human Plasma Kallikrein was 1000 to 10000 nM.

For `CS(=O)(=O)c1cc(Cc2cc(C(=O)NCc3n[nH]c4ccc(Cl)cc34)ccn2)ccc1Cn1ccccc1=O` [Example 30, N-((5-chloro-1H-indazol-3-yl)methyl)-2-(3-(methylsulfonyl)-4-((2-oxopyridin-1(2H)-yl)methyl)benzyl)isonicotinamide], the IC50 on human Plasma Kallikrein is not above 100 nM.

For the compound `O=C(NCc1ccc(Cl)cc1)c1cncc(Cc2ccc(Cn3ccccc3=O)cc2)c1` [Example 15, N-(4-chlorobenzyl)-5-(4-((2-oxopyridin-1(2H)-yl)methyl)benzyl)nicotinamide], the IC50 on human Plasma Kallikrein lay within 1000 to 10000 nM.

Turning to `O=C(NCc1cc2c(Cl)c[nH]c2cc1F)c1ccc(=O)n(CC23CC(Cn4ccccc4=O)(C2)C3)c1` [Example 17, N-((3-chloro-6-fluoro-1H-indol-5-yl)methyl)-6-oxo-1-((3-((2-oxopyridin-1(2H)-yl)methyl)bicyclo[1.1.1]pentan-1-yl)methyl)-1,6-dihydropyridine-3-carboxamide], the IC50 on human Plasma Kallikrein fell in the range of 1000 to 10000 nM.

`NC(=O)c1ccc(CNC(=O)c2cncc(Cc3ccc(Cn4ccccc4=O)cc3)c2)cc1` [Example 14, N-(4-carbamoylbenzyl)-5-(4-((2-oxopyridin-1(2H)-yl)methyl)benzyl)nicotinamide]: the IC50 at human Plasma Kallikrein was in the range of 1000 to 10000 nM.

As for `Cc1cc(C#N)ccc1CNC(=O)c1ccnc(Cc2ccc(Cn3ccccc3=O)cc2)c1` [Example 19, N-(4-cyano-2-methylbenzyl)-2-(4-((2-oxopyridin-1(2H)-yl)methyl)benzyl)isonicotinamide], on human Plasma Kallikrein, the IC50 was more than 10000 nM.

On to `NC(=O)C(NC(=O)c1cncc(Cc2ccc(Cn3ccccc3=O)cc2)c1)c1n[nH]c2ccc(Cl)cc12` (stereo not drawn) [Example 11, N-(2-amino-1-(5-chloro-1H-indazol-3-yl)-2-oxoethyl)-5-(4-((2-oxopyridin-1(2H)-yl)methyl)benzyl)nicotinamide], for which the IC50 on human Plasma Kallikrein lay within 1000 to 10000 nM.

As to `O=C(NCc1n[nH]c2ccc(Cl)cc12)c1cncc(Cc2ccccc2)c1` [Example 5, 5-benzyl-N-((5-chloro-1H-indazol-3-yl)methyl)nicotinamide], at human Plasma Kallikrein, the IC50 lay in the range of 1000 to 10000 nM.

In the case of `NC(=O)c1cnn(Cc2cncc(C(=O)NCc3cc4c(Cl)c[nH]c4cc3F)c2)c1` [Example 8, 5-((4-carbamoyl-1H-pyrazol-1-yl)methyl)-N-((3-chloro-6-fluoro-1H-indol-5-yl)methyl)nicotinamide], the IC50 at human Plasma Kallikrein is more than 10000 nM.

As for `CS(=O)(=O)c1cc(Cc2cc(C(=O)NCc3ccc4c(N)noc4c3)ccn2)ccc1Cn1ccccc1=O` [Example 20, N-((3-aminobenzo[d]isoxazol-6-yl)methyl)-2-(3-(methylsulfonyl)-4-((2-oxopyridin-1(2H)-yl)methyl)benzyl)isonicotinamide], the IC50 on human Plasma Kallikrein was 100 to 1000 nM.

For the compound `N#Cc1ccc(Cc2cncc(C(=O)NCc3n[nH]c4ccc(Cl)cc34)c2)cc1` [Example 2, N-((5-chloro-1H-indazol-3-yl)methyl)-5-(4-cyanobenzyl)nicotinamide], at human Plasma Kallikrein, the IC50 was in the range of 1000 to 10000 nM.

As for `O=C(NCc1n[nH]c2ccc(Cl)cc12)c1cncc(Cc2ccc(C(F)(F)F)cc2)c1` [Example 3, N-((5-chloro-1H-indazol-3-yl)methyl)-5-(4-(trifluoromethyl)benzyl)nicotinamide], the IC50 on human Plasma Kallikrein is 1000 to 10000 nM.

Regarding `NC(=O)c1ccccc1Cc1cncc(C(=O)NCc2n[nH]c3ccc(Cl)cc23)c1` [Example 6, 5-(2-carbamoylbenzyl)-N-((5-chloro-1H-indazol-3-yl)methyl)nicotinamide], the 50% inhibitory concentration (IC50) on human Plasma Kallikrein lay in the range of 1000 to 10000 nM.

Regarding `O=C(NCc1n[nH]c2ccc(Cl)cc12)c1cncc(Cc2ccccc2C(F)(F)F)c1` [Example 1, N-((5-chloro-1H-indazol-3-yl)methyl)-5-(2-(trifluoromethyl)benzyl)nicotinamide], at human Plasma Kallikrein, the IC50 lay in the range of 1000 to 10000 nM.

For `Cc1ccc(Cc2cncc(C(=O)NCc3n[nH]c4ccc(Cl)cc34)c2)cc1` [Example 4, N-((5-chloro-1H-indazol-3-yl)methyl)-5-(4-methylbenzyl)nicotinamide], the IC50 on human Plasma Kallikrein was 1000 to 10000 nM.

For `O=C(NC(C(=O)O)c1n[nH]c2ccc(Cl)cc12)c1cncc(Cc2ccc(Cn3ccccc3=O)cc2)c1` (stereo not drawn) [Example 12, 2-(5-chloro-1H-indazol-3-yl)-2-(5-(4-((2-oxopyridin-1(2H)-yl)methyl)benzyl)nicotinamido)acetic acid], the IC50 at human Plasma Kallikrein is 1000 to 10000 nM.

As to `Cc1cc(N)nc(C)c1CNC(=O)c1ccnc(Cc2ccc3ncc(Cl)cc3c2)n1` [Example 24, N-((6-amino-2,4-dimethylpyridin-3-yl)methyl)-2-((3-chloroquinolin-6-yl)methyl)pyrimidine-4-carboxamide], the IC50 on human Plasma Kallikrein was not above 100 nM.

Turning to `CS(=O)(=O)c1cc(Cc2cc(C(=O)NCc3ccc(N)nc3C(F)(F)F)ccn2)ccc1Cn1ccccc1=O` [Example 26, N-((6-amino-2-(trifluoromethyl)pyridin-3-yl)methyl)-2-(3-(methylsulfonyl)-4-((2-oxopyridin-1(2H)-yl)methyl)benzyl)isonicotinamide], on human Plasma Kallikrein, the IC50 is 1000 to 10000 nM.

On to `O=C(NCc1ccc(Br)c(F)c1)c1ccnc(Cc2ccc(Cn3ccccc3=O)cc2)c1` [Example 18, N-(4-bromo-3-fluorobenzyl)-2-(4-((2-oxopyridin-1(2H)-yl)methyl)benzyl)isonicotinamide], for which, on human Plasma Kallikrein, the IC50 is more than 10000 nM.

These data come from patent US10981893B2, “Therapeutic inhibitory compounds” (Attune Pharmaceuticals, Inc., priority 2015, dated 2021).
